Non-standard residues stand in square brackets, D forms with d. Residues, ends and D or L forms follow the SMILES beside them. Nle = CCCC[C@H](N)C(=O)O; Ac5c = NC1(C(=O)O)CCCC1; Ahx = NCCCCCC(=O)O; βAla = NCCC(=O)O; Sar = CNCC(=O)O
molecular target: Furin (Homo sapiens, UniProt P09958)
Sequence (P09958 whole entry): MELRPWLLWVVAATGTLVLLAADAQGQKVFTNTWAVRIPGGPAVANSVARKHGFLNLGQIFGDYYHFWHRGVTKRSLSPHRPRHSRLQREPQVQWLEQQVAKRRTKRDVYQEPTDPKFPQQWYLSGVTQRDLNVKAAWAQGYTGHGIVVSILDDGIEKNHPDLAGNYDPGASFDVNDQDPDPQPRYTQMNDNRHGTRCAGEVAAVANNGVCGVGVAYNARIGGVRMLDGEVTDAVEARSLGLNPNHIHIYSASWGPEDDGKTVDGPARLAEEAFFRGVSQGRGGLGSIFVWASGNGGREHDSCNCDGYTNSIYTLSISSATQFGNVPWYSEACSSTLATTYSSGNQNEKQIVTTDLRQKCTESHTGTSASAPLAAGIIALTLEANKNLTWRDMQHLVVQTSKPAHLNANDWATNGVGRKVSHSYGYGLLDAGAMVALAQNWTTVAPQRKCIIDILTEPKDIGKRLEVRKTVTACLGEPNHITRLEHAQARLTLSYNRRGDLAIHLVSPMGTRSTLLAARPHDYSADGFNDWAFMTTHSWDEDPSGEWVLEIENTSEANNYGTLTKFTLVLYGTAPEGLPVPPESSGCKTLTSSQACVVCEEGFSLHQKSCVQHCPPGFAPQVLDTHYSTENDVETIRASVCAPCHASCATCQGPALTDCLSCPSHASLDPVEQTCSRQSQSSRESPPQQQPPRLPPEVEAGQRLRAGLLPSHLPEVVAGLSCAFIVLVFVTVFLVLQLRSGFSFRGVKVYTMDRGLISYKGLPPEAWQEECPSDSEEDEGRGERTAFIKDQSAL

Compound	Ki [nM]
CSC[C@H](NC(=O)[C@H](CCCNC(=N)N)NC(=O)[C@H](CCCCN)NC(=O)[C@H](CCCCN)NC(=O)[C@H](CCCNC(=N)N)NC(=O)[C@H](CCCNC(=N)N)NC(=O)[C@H](CCCNC(=N)N)NC(=O)[C@H](C)NC(=O)[C@H](CCCNC(=N)N)NC(=O)[C@H](CCC(N)=O)NC(=O)[C@@H]1CCCN1C(=O)[C@@H](N)[C@@H](C)O)C(=O)O (H-TPQRARRRKKRC(Me)-OH)	93
C[C@H](NC(=O)[C@H](CCCNC(=N)N)NC(=O)[C@H](CCC(N)=O)NC(=O)[C@@H]1CCCN1C(=O)[C@@H](N)[C@@H](C)O)C(=O)N[C@@H](CCCNC(=N)N)C(=O)N[C@@H](CCCNC(=N)N)C(=O)N[C@@H](CCCNC(=N)N)C(=O)N[C@@H](CCCCN)C(=O)N[C@@H](CCCCN)C(=O)N[C@@H](CCCNC(=N)N)C(=O)NC1(C(=O)O)CCCC1 (H-TPQRARRRKKR[Ac5c]-OH)	> 100
C[C@H](NC(=O)[C@H](CCCNC(=N)N)NC(=O)[C@H](CCC(N)=O)NC(=O)[C@@H]1CCCN1C(=O)[C@@H](N)[C@@H](C)O)C(=O)N[C@@H](CCCNC(=N)N)C(=O)N[C@@H](CCCNC(=N)N)C(=O)N[C@@H](CCCNC(=N)N)C(=O)N[C@@H](CCCCN)C(=O)N[C@@H](CCCCN)C(=O)N[C@@H](CCCNC(=N)N)C(=O)NCCCCCC(=O)O (H-TPQRARRRKKR[Ahx]-OH)	> 100
CCCC[C@H](NC(=O)[C@H](CCCN=C(N)N)NC(=O)[C@H](CCCCN)NC(=O)[C@H](CCCCN)NC(=O)[C@H](CCCN=C(N)N)NC(=O)[C@H](CCCN=C(N)N)NC(=O)[C@H](CCCN=C(N)N)NC(=O)[C@H](C)NC(=O)[C@H](CCCN=C(N)N)NC(=O)[C@H](CCC(N)=O)NC(=O)[C@@H]1CCCN1C(=O)[C@@H](N)[C@@H](C)O)C(=O)O (H-TPQRARRRKKR[Nle]-OH)	> 100
C[C@H](NC(=O)[C@H](CCCN=C(N)N)NC(=O)[C@H](CCC(N)=O)NC(=O)[C@@H]1CCCN1C(=O)[C@@H](N)[C@@H](C)O)C(=O)N[C@@H](CCCN=C(N)N)C(=O)N[C@@H](CCCN=C(N)N)C(=O)N[C@@H](CCCN=C(N)N)C(=O)N[C@@H](CCCCN)C(=O)N[C@@H](CCCCN)C(=O)N[C@@H](CCCN=C(N)N)C(=O)NCCC(=O)O (H-TPQRARRRKKR[βAla]-OH)	> 100
C[C@H](NC(=O)[C@H](C)NC(=O)[C@H](CCCNC(=N)N)NC(=O)[C@@H]1CCCN1C(=O)[C@@H](N)[C@@H](C)O)C(=O)N[C@@H](CCCNC(=N)N)C(=O)N[C@@H](CCCNC(=N)N)C(=O)N[C@@H](CCCCN)C(=O)N[C@@H](CCCCN)C(=O)N[C@@H](CCCNC(=N)N)C(=O)N(C)CC(=O)O (H-TPRAARRKKR[Sar]-OH)	> 100
C[C@H](NC(=O)[C@H](C)NC(=O)[C@H](CCC(=O)O)NC(=O)[C@H](CCCNC(=N)N)NC(=O)[C@@H]1CCCN1C(=O)[C@@H](N)[C@@H](C)O)C(=O)N[C@@H](C)C(=O)N[C@@H](CCCCN)C(=O)N[C@@H](CCCCN)C(=O)N[C@@H](CCCNC(=N)N)C(=O)N(C)CC(=O)O (H-TPREAAAKKR[Sar]-OH)	> 100
C[C@H](NC(=O)[C@H](C)NC(=O)[C@H](CCC(=O)O)NC(=O)[C@H](CCCN=C(N)N)NC(=O)[C@@H]1CCCN1C(=O)[C@@H](N)[C@@H](C)O)C(=O)N[C@@H](CCCN=C(N)N)C(=O)N[C@@H](CCCCN)C(=O)N[C@@H](CCCCN)C(=O)N[C@@H](CCCN=C(N)N)C(=O)N(C)CC(=O)O (H-TPREAARKKR[Sar]-OH)	> 100
C[C@H](NC(=O)[C@H](CCC(=O)O)NC(=O)[C@H](CCCNC(=N)N)NC(=O)[C@@H]1CCCN1C(=O)[C@@H](N)[C@@H](C)O)C(=O)N[C@@H](CCCNC(=N)N)C(=O)N[C@@H](CCCNC(=N)N)C(=O)N[C@@H](CCCCN)C(=O)N[C@@H](CCCCN)C(=O)N[C@@H](CCCNC(=N)N)C(=O)N(C)CC(=O)O (H-TPREARRKKR[Sar]-OH)	> 100
C[C@H](NC(=O)[C@H](C)NC(=O)[C@H](CCCNC(=N)N)NC(=O)[C@H](CCC(=O)O)NC(=O)[C@H](CCCNC(=N)N)NC(=O)[C@@H]1CCCN1C(=O)[C@@H](N)[C@@H](C)O)C(=O)N[C@@H](CCCCN)C(=O)N[C@@H](CCCCN)C(=O)N[C@@H](CCCNC(=N)N)C(=O)N(C)CC(=O)O (H-TPRERAAKKR[Sar]-OH)	> 100
C[C@H](NC(=O)[C@H](CCCNC(=N)N)NC(=O)[C@H](CCC(=O)O)NC(=O)[C@H](CCCNC(=N)N)NC(=O)[C@@H]1CCCN1C(=O)[C@@H](N)[C@@H](C)O)C(=O)N[C@@H](CCCNC(=N)N)C(=O)N[C@@H](CCCCN)C(=O)N[C@@H](CCCCN)C(=O)N[C@@H](CCCNC(=N)N)C(=O)N(C)CC(=O)O (H-TPRERARKKR[Sar]-OH)	> 100
C[C@H](NC(=O)[C@H](C)NC(=O)[C@H](CCCNC(=N)N)NC(=O)[C@H](CCCNC(=N)N)NC(=O)[C@H](CCC(=O)O)NC(=O)[C@H](CCCNC(=N)N)NC(=O)[C@@H]1CCCN1C(=O)[C@@H](N)[C@@H](C)O)C(=O)N[C@@H](CCCCN)C(=O)N[C@@H](CCCNC(=N)N)C(=O)N(C)CC(=O)O (H-TPRERRAAKR[Sar]-OH)	> 100
C[C@H](NC(=O)[C@H](CCCNC(=N)N)NC(=O)[C@H](CCCNC(=N)N)NC(=O)[C@H](CCC(=O)O)NC(=O)[C@H](CCCNC(=N)N)NC(=O)[C@@H]1CCCN1C(=O)[C@@H](N)[C@@H](C)O)C(=O)N[C@@H](CCCCN)C(=O)N[C@@H](CCCCN)C(=O)N[C@@H](CCCNC(=N)N)C(=O)N(C)CC(=O)O (H-TPRERRAKKR[Sar]-OH)	> 100
C[C@H](NC(=O)[C@H](CCCNC(=N)N)NC(=O)[C@H](CCCNC(=N)N)NC(=O)[C@H](CCCNC(=N)N)NC(=O)[C@H](CCC(=O)O)NC(=O)[C@H](CCCNC(=N)N)NC(=O)[C@@H]1CCCN1C(=O)[C@@H](N)[C@@H](C)O)C(=O)N[C@@H](CCCCN)C(=O)N[C@@H](CCCNC(=N)N)C(=O)N(C)CC(=O)O (H-TPRERRRAKR[Sar]-OH)	> 100
C[C@H](NC(=O)[C@H](CCCCN)NC(=O)[C@H](CCCNC(=N)N)NC(=O)[C@H](CCCNC(=N)N)NC(=O)[C@H](CCCNC(=N)N)NC(=O)[C@H](CCC(=O)O)NC(=O)[C@H](CCCNC(=N)N)NC(=O)[C@@H]1CCCN1C(=O)[C@@H](N)[C@@H](C)O)C(=O)N[C@@H](C)C(=O)N(C)CC(=O)O (H-TPRERRRKAA[Sar]-OH)	> 100
C[C@H](NC(=O)[C@H](CCCCN)NC(=O)[C@H](CCCNC(=N)N)NC(=O)[C@H](CCCNC(=N)N)NC(=O)[C@H](CCCNC(=N)N)NC(=O)[C@H](CCC(=O)O)NC(=O)[C@H](CCCNC(=N)N)NC(=O)[C@@H]1CCCN1C(=O)[C@@H](N)[C@@H](C)O)C(=O)N[C@@H](CCCNC(=N)N)C(=O)N(C)CC(=O)O (H-TPRERRRKAR[Sar]-OH)	> 100
C[C@H](NC(=O)[C@H](CCCCN)NC(=O)[C@H](CCCCN)NC(=O)[C@H](CCCN=C(N)N)NC(=O)[C@H](CCCN=C(N)N)NC(=O)[C@H](CCCN=C(N)N)NC(=O)[C@H](CCC(=O)O)NC(=O)[C@H](CCCN=C(N)N)NC(=O)[C@@H]1CCCN1C(=O)[C@@H](N)[C@@H](C)O)C(=O)N(C)CC(=O)O (H-TPRERRRKKA[Sar]-OH)	> 100
C[C@@H](O)[C@H](N)C(=O)N1CCC[C@H]1C(=O)N[C@@H](CCCNC(=N)N)C(=O)N[C@@H](CCC(=O)O)C(=O)N[C@@H](CCCNC(=N)N)C(=O)N[C@@H](CCCNC(=N)N)C(=O)N[C@@H](CCCNC(=N)N)C(=O)N[C@@H](CCCCN)C(=O)N[C@@H](CCCCN)C(=O)N[C@@H](CCCNC(=N)N)C(=O)N(C)CC(=O)O (H-TPRERRRKKR[Sar]-OH)	> 100
H-AAAERRRKKR-OH	> 100
H-AAAERRRKKRG-OH	> 100
H-AAAERRRKKRV-OH	> 100
H-AARERRRKKR-OH	> 100
H-AARERRRKKRG-OH	> 100
H-AARERRRKKRV-OH	> 100

From ChEMBL document CHEMBL1156471, “Targeting host cell furin proprotein convertases as a therapeutic strategy against bacterial toxins and viral pathogens” (J Biol Chem, 2007)
